For the experiment, the system named is tender mangoes. The experiment in a line: Preservation of tender mangoes in salt solution, 45 days at room temperature. The settings on record: common salt solution 2.5%, optimized nutrient salt solution 5% (matching saltiness), 25 to 35 degree centigrade. From the text:
Two sets of 1000 gm tender mangoes were put in two separate sterile glass bottles. First bottle was filled with common salt solution up to the neck of the bottle and the second bottle was filled with optimized nutrient salt solution prepared by a process as given in example 1 of matching saltiness. Saltiness of optimized nutrient salt is only half of common salt. While the common salt solution used was 2.5% and the optimized nutrient salt solution was 5%. Bottle closed with cap and kept for seasoning for 45 days in room temperature around 25 to 35 degree centigrade.

For `[Cl-].[Na+]` [common salt], the “fungal growth at the surface of the solution” value was “thin layer of fungal growth”.

These data come from patent US20220152093A1, “OPTIMIZED NUTRIENT SALT COMPOSITION” (priority 2018, published 2022).
